Active and inactive are the calls of the source. The rule behind the calls is not given here.
How the values were obtained:
U-937 = test: Anti-necroptotic activity against TNFalph/Z-VAD-FMK-induced human U-937 cells assessed as cell viability measured after 19 to 21 hrs by CellTiter-Glo luminescent cell viability assay; type: functional, cell-based
HT-29 [1] = test: Anti-necroptotic activity in human HT-29 cells assessed as inhibition of TNFalpha/Z-VAD-fmk (TCZ)-induced necroptosis pretreated for 8 to 12 hrs; type: functional, cell-based
[2] = target: T1, Receptor-interacting serine/threonine-protein kinase 1 (Homo sapiens, UniProt Q13546); test: Inhibition of human wild type RIPK1 (M1 to K305) expressed in bacterial system by kinomescan assay
T1 sequence (Q13546 whole entry): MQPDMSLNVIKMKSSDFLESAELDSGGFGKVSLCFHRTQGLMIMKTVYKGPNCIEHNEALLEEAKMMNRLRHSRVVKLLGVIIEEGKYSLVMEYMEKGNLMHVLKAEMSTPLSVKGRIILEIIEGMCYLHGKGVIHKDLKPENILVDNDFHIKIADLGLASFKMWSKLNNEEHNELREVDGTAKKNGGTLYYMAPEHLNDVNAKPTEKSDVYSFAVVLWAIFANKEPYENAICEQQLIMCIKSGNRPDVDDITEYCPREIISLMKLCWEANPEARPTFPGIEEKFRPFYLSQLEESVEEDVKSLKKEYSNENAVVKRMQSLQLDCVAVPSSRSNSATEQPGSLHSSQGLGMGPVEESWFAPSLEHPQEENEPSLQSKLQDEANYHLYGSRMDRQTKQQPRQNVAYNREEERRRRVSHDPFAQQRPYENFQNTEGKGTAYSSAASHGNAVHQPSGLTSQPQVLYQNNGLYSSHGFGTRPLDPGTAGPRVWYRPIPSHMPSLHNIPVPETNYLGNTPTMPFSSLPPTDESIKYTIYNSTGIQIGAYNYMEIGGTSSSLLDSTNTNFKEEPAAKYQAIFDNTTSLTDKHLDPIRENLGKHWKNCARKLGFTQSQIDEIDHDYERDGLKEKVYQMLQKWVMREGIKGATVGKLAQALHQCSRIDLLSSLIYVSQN

[3] = target: Receptor-interacting serine/threonine-protein kinase 3 (Homo sapiens, UniProt Q9Y572); test: Inhibition of human wild type RIPK3 (M1 to Q307) expressed in bacterial system by kinomescan assay
[4] = target: T2, Receptor-interacting serine/threonine-protein kinase 1 (Homo sapiens) (UniProt Q13546); test: Inhibition of RIPK1 in human HT-29 cells assessed as inhibition of TSZ-induced RIPK1 phosphorylation at 1 uM measured upto 4 hrs by Western blot analysis; type: cell-based; conditions: time hrs <=4
T2 sequence (whole entry): T1 sequence (Q13546 whole entry)

[5] = target: T2, Receptor-interacting serine/threonine-protein kinase 1 (Homo sapiens); test: Inhibition of RIPK1 in human HT-29 cells assessed as inhibition of TSZ-induced RIPK3 phosphorylation at 1 uM measured upto 4 hrs by Western blot analysis; type: cell-based; conditions: time hrs <=4
[6] = target: T2, Receptor-interacting serine/threonine-protein kinase 1 (Homo sapiens); test: Inhibition of RIPK1 in human HT-29 cells assessed as inhibition of TSZ-induced MLKL phosphorylation at 1 uM measured upto 4 hrs by Western blot analysis; type: cell-based; conditions: time hrs <=4
[7] = target: T3, Receptor-interacting serine/threonine-protein kinase 1 (Mus musculus) (UniProt Q60855); test: Inhibition of RIPK1 in mouse L929 cells assessed as TZ-induced RIPK3 phosphorylation at 1 uM measured upto 4 hrs by Western blot analysis; type: cell-based; conditions: time hrs <=4
T3 sequence (whole entry): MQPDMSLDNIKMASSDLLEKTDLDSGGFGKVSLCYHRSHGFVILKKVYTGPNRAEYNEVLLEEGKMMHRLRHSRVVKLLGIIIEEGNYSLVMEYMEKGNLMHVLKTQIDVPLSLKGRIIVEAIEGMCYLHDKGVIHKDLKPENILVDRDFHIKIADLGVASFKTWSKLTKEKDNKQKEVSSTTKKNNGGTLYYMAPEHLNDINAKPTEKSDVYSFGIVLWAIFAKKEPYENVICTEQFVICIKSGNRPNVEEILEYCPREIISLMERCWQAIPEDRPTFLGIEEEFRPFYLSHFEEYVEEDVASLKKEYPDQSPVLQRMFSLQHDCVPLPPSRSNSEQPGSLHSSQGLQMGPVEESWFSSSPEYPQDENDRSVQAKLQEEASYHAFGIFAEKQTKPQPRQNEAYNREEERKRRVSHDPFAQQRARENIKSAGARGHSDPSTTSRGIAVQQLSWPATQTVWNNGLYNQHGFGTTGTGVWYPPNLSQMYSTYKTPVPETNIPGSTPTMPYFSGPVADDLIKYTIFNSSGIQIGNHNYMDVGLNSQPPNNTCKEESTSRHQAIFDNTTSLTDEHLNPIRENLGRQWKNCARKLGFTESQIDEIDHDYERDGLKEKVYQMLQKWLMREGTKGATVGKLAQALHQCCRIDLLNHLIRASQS

[8] = target: T3, Receptor-interacting serine/threonine-protein kinase 1 (Mus musculus); test: Inhibition of RIPK1 in mouse L929 cells assessed as TZ-induced MLKL phosphorylation at 1 uM measured upto 4 hrs by Western blot analysis; type: cell-based; conditions: time hrs <=4
L929 [9] = test: Anti-necroptotic activity in mouse L929 cells assessed as inhibition of TZ-induced necroptosis measured after 9 hrs; type: functional, cell-based
HT-29 [10] = test: Anti-necroptotic activity in human HT-29 cells assessed as inhibition of TNFalpha/TS induced necroptosis uM measured after 36 hrs; type: functional, cell-based
HT-29 [11] = test: Anti-necroptotic activity in human HT-29 cells assessed as inhibition of TSZ induced necroptosis at 2.5 uM measured after 12 hrs; type: functional, cell-based
L929 [12] = test: Anti-necroptotic activity in mouse L929 cells assessed as inhibition of mTNFalpha-induced necroptosis measured after 9 hrs; type: functional
HT-29 [13] = test: Anti-necroptotic activity in human HT-29 cells assessed as inhibition of TSZ induced necroptosis at 0.25 uM measured after 12 hrs; type: functional; set-up: scale not given: the % may be the effect or the level left
HT-29 [14] = test: Anti-necroptotic activity in human HT-29 cells assessed as inhibition of TSZ induced necroptosis measured after 12 hrs; type: functional, cell-based; conditions: dose 0.025-25 µM
L929 [15] = test: Anti-necroptotic activity against TNFalph/Z-VAD-FMK-induced mouse L929 cells assessed as cell viability measured after 19 to 21 hrs by CellTiter-Glo luminescent cell viability assay; type: functional, cell-based

Sequence of Receptor-interacting serine/threonine-protein kinase 3 (Q9Y572 whole entry): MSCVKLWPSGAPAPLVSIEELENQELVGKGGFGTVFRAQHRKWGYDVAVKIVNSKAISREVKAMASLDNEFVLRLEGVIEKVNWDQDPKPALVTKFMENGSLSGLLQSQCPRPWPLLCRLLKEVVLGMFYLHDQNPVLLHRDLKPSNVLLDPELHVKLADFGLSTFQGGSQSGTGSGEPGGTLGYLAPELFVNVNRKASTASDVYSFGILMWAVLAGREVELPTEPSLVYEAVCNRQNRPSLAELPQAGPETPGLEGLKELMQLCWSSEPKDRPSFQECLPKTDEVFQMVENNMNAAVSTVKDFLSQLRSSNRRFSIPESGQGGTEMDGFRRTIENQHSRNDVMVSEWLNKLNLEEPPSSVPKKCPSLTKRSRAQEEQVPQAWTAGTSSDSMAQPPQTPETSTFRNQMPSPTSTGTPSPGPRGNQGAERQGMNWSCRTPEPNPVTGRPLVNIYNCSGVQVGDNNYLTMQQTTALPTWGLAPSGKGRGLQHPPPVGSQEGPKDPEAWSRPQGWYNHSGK

Row | Kd [2] [nM] | Kd [3] [nM] | inhibition [4] | inhibition [5] | inhibition [6] | inhibition [7] | inhibition [8] | Structure (SMILES) | IC50 (U-937) [nM] | EC50 (HT-29 [1]) [nM] | Activity (L929 [9]) | Activity (HT-29 [10]) | inhibition (HT-29 [11]) | inhibition (INH) (L929 [12]) [%] | Activity (HT-29 [13]) [%] | Activity (HT-29 [14]) | IC50 (L929 [15]) [nM]
1 | – | – | – | – | – | – | – | CN1C(=O)[C@H](NC(=O)c2cc(Cc3ccccc3)on2)COc2ccccc21 | > 10000 | – | – | – | – | – | – | – | –
2 | 1700 | 650 | Active | Active | Active | Active | Active | CC1(C)C[C@H]1C(=O)Nc1nc2ccc(Oc3ccc(F)c(NC(=O)Cc4cccc(C(F)(F)F)c4)c3)cc2s1 | – | 290 | Dose-Dependent Effect | Dose-Dependent Effect | Active | 100 | – | – | –
3 | 430 | 145 | Active | Active | Active | Active | Active | CC1(C)C[C@@H]1C(=O)Nc1nc2ccc(Oc3ccc(F)c(NC(=O)Cc4cccc(C(F)(F)F)c4)c3)cc2s1 | – | 150 | Dose-Dependent Effect | Dose-Dependent Effect | Active | 100 | 90 | – | –
4 | 480 | 270 | Active | Active | Active | 100% | 100% | CC1(C)CC1C(=O)Nc1nc2ccc(Oc3ccc(F)c(NC(=O)Cc4cccc(C(F)(F)F)c4)c3)cc2s1 (racemic) | – | 310 | Dose-Dependent Effect | Dose-Dependent Effect | – | 100 | – | Dose-Dependent Effect | –
5 | – | – | – | – | – | – | – | CN1C(=O)[C@@H](NC(=O)c2cc(Cc3ccccc3)on2)COc2ccccc21 | 10 | – | – | – | – | – | – | – | –
6 | – | – | – | – | – | – | – | CC(C)(C)C(=O)N1N=CC[C@H]1c1ccccc1 | – | – | – | – | – | – | – | – | 3.1
7 | – | – | – | – | – | – | – | CC(C)(C)C(=O)N1N=CC[C@@H]1c1ccccc1 | > 10000 | – | – | – | – | – | – | – | –

From ChEMBL document CHEMBL4819126, “Enantiomeric profiling of a chiral benzothiazole necroptosis inhibitor” (Bioorg Med Chem Lett, 2021)
